{"source": "patent US5750754A", "about": "“Heterocyclic compounds” (Zeneca Limited, priority 1993, dated 1998)", "key": {"αv β3": {"molecular_target": "αv β3 (Homo sapiens, UniProt P05106+P06756)", "sequence (P06756 31-889 limits assumed)": "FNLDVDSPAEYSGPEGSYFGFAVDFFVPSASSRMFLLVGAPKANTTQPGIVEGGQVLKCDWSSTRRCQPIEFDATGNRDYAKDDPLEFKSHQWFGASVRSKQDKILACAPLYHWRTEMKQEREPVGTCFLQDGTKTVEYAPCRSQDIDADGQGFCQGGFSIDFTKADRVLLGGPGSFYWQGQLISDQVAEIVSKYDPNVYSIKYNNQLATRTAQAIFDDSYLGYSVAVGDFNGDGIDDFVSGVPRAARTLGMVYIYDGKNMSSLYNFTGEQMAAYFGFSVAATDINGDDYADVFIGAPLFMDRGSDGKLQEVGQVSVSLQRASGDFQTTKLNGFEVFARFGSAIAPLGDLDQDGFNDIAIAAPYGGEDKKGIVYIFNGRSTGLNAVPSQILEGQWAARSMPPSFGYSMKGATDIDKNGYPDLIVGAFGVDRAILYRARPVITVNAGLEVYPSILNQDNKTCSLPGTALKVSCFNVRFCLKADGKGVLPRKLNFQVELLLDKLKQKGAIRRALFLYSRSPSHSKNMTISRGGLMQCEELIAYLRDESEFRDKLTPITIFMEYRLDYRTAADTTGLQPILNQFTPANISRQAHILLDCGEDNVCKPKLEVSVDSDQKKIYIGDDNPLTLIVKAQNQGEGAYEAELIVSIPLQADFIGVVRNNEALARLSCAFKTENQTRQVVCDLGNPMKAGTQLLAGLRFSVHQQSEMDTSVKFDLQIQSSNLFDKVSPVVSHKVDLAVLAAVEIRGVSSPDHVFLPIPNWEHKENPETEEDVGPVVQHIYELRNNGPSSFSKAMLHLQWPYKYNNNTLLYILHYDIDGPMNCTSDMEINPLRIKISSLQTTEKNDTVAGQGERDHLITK", "sequence (P06756 891-1048 limits assumed)": "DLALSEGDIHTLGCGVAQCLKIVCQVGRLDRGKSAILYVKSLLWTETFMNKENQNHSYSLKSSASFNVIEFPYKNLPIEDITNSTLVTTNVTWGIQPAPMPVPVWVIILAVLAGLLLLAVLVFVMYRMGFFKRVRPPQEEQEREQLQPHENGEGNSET", "sequence (P05106 27-788)": "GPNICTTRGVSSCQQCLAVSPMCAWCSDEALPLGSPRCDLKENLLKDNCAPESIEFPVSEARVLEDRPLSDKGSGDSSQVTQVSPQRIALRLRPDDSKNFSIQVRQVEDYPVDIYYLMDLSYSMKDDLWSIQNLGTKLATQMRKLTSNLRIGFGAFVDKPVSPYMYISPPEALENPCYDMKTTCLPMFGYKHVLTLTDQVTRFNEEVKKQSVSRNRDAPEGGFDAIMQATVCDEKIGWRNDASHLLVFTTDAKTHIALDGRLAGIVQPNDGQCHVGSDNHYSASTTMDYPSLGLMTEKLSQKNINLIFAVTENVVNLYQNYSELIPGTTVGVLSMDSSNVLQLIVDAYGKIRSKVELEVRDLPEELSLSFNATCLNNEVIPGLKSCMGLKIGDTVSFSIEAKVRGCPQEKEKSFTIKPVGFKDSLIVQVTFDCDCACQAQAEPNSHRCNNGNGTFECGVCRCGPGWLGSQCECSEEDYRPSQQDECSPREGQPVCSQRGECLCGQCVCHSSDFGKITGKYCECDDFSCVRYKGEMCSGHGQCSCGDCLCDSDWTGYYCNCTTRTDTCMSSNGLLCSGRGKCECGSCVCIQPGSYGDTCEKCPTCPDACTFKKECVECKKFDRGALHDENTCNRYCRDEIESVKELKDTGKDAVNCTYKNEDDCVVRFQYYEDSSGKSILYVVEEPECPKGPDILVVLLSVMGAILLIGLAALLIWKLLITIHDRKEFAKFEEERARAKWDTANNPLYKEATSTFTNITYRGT", "test": "Binding of αv β3 to vitronectin", "details": "read-out: pIC50, binding of αv β3 to vitronectin (converted)"}, "[1]": {"molecular_target": "T1, human, citrated, platelet-rich plasma (Homo sapiens, UniProt P05106+P08514)", "T1 construct": "aggregating human, citrated, platelet-rich plasma; endogenous in cells; host or cells: human platelets in citrated platelet-rich plasma", "T1 sequence (P08514 32-887 limits assumed)": "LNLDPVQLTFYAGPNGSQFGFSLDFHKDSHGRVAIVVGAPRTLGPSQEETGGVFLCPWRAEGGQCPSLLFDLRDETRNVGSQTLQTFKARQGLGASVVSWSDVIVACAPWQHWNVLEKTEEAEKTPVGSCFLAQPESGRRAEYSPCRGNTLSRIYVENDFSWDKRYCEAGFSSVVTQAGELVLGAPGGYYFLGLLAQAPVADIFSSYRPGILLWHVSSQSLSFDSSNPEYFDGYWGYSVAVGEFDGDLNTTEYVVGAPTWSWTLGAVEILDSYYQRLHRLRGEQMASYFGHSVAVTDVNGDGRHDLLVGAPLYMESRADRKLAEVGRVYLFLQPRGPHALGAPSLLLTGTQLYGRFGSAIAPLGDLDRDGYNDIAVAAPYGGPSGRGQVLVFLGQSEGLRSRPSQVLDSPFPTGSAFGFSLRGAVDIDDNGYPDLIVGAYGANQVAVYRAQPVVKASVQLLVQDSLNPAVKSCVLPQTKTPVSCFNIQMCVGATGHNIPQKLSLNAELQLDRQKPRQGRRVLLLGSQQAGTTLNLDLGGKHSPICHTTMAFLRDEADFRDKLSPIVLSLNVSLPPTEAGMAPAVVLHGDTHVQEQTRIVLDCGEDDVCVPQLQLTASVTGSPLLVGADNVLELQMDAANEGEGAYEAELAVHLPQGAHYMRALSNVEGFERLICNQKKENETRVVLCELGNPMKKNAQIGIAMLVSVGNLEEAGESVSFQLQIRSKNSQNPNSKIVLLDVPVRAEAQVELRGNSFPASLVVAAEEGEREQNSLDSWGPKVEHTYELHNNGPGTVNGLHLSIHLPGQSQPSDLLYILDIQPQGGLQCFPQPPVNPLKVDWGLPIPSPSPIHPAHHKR", "T1 sequence (P08514 891-1039 limits assumed)": "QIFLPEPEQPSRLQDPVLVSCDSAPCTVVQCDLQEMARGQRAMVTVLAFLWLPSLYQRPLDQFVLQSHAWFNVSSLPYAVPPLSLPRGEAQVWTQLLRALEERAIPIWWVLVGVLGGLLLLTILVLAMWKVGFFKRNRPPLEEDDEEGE", "T1 sequence (P05106 27-788)": "as the sequence (P05106 27-788) above", "test": "Test (a): inhibition of ADP stimulated platelet aggregation (Born)", "assay_type": "cell-based", "details": "ADP induced aggregation of human platelet-rich plasma; read-out: Test (a): pA2 value indicating potency of platelet aggregation inhibition (converted)", "outline": "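ADP added to human citrated platelet-rich plasma to build aggregation dose-response curves, repeated with increasing test compound (generally 10-^5 M to 10-^10 M). pA2 derived from the 50% response value for ADP with vs. without compound, averaged over several concentrations.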"}, "[2]": {"tested_on": "Alderley Park Wistar rats", "test": "Repeated oral dose study in the rat (liver effects, tolerability)", "assay_type": "in vivo", "procedure": "The following is a description of a study of the effects of the (-)-(3R) compound of Example 246 and the corresponding (3RS)-racemic mixture of Example 203 in the rat. Four groups of ten Alderley Park Wistar rats (each group comprising 5 male and 5 female rats) were dose orally with the (3RS)-racemic mixture of Example 203 at daily doses of 0, 25, 100 or 500 mg/kg. Dosing was continued for a total of seven days. The animals were killed and examined.\nFour groups of ten Alderley Park Wistar rats (each group comprising 5 male and 5 female rats) were dosed orally with the (-)-(3R) compound of Example 246 at daily doses of 0, 50, 250 and 1000 mg/kg. The highest dose was not tolerated. After four or five days, four of the animals from this group were killed. The remaining six animals were dosed at 500 mg/kg/day for the remainder of the study. Dosing was continued for a total of fourteen days. The animals were killed and examined."}, "αv β1": {"molecular_target": "αv β1", "test": "Binding of αv β1 to fibronectin"}, "[3]": {"molecular_target": "T2, purified human platelet fibrinogen receptor (GPIIb/IIIa) (Homo sapiens, UniProt P05106+P08514)", "T2 construct": "is isolated from human platelet lysates; from tissue", "T2 sequence (P08514 32-887 limits assumed)": "as the sequence (P08514 32-887 limits assumed) above", "T2 sequence (P08514 891-1039 limits assumed)": "as the sequence (P08514 891-1039 limits assumed) above", "T2 sequence (P05106 27-788)": "as the sequence (P05106 27-788) above", "test": "Test (b): GPIIb/IIIa ELISA, inhibition of biotinylated fibrinogen binding", "outline": "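GPIIb/IIIa affinity-purified from human platelet lysates was coated on plates, blocked, then incubated 2 h at 30 °C with biotinylated fibrinogen ([…]) plus compound. Bound fibrinogen detected via streptavidin/biotinylated HRP and TMB, OD at 650 nm; pIC50 for 50% binding inhibition.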"}}}
{"smiles": "C[C@@H](COc1ccc(N2CCN(c3ccncc3)CC2)cc1)CC(=O)O.Cl", "note": "[Example 246, (-)-(3R)-3-Methyl-4-{4-[4-(4-pyridyl)piperazin-1-yl]phenoxy}butyric acid hydrochloride]", "values": [{"measurement": "IC50", "setting": "αv β3", "value": "> 100000", "unit": "nM"}, {"measurement": "Kb", "setting": "[1]", "value": 50.1, "unit": "nM"}, {"measurement": "toxicity relative to the (3RS)-racemic mixture (by implication)", "setting": "[2]; rat oral studies compared", "value": "less toxic than the (3RS)-racemic mixture of Example 203"}, {"measurement": "adverse effect on the rat liver (conclusion)", "setting": "[2]; rat, 500 mg/kg/day", "value": "no significant adverse effect on the rat liver"}, {"measurement": "adverse effects in the liver", "setting": "[2]; rat, oral, 250 mg/kg/day, fourteen days", "value": "No adverse effects were noted in the livers"}, {"measurement": "tolerability of the highest dose", "setting": "[2]; rat, oral, 1000 mg/kg daily", "value": "not tolerated"}, {"measurement": "adverse effect on the liver", "setting": "[2]; rat, oral, 1000 mg/kg/day for three or four days then 500 mg/kg/day for ten or eleven days", "value": "no adverse effect on the liver"}, {"measurement": "pIC50, binding of αv β1 to fibronectin", "setting": "αv β1", "value": "less than 4"}, {"measurement": "IC50", "setting": "[3]; purified human platelet GPIIb/IIIa, ELISA, read-out: Test (b): pIC50 (-log(IC50)), 50% inhibition of biotinylated fibrinogen binding to GPIIb/IIIa (converted)", "value": 22.4, "unit": "nM"}, {"measurement": "potency as a GPIIb/IIIa antagonist relative to the corresponding (+)-(3S) isomer", "setting": "[3]; versus (+)-(3S) isomer", "value": "greater than 10 fold"}]}
